# Laboratory results reported in ChEMBL document CHEMBL3217712, “Improved biodistribution, pharmacokinetics and photodynamic efficacy using a new photostable sulfonamide bacteriochlorin” (Medchemcomm, 2012).
# Legend:
# [1] = Biodistribution in mouse Cloudman S91 tumor bearing DBA2 mouse skin at 10 mg/kg, ip after 6 hrs; format: ADME, organism-based, Zone of skin; design: dose 10 mg/kg, route intraperitoneal; conditions: read-out: Drug uptake
# [2] = Biodistribution in mouse Cloudman S91 tumor bearing DBA2 mouse lungs at 10 mg/kg, ip after 24 hrs; format: ADME, organism-based; design: dose 10 mg/kg, route intraperitoneal; conditions: lung, read-out: Drug uptake
# [3] = Biodistribution in mouse Cloudman S91 tumor bearing DBA2 mouse spleen at 10 mg/kg, ip after 72 hrs; format: ADME, organism-based; design: dose 10 mg/kg, route intraperitoneal; conditions: read-out: Drug uptake
# [4] = Biodistribution in mouse Cloudman S91 tumor bearing DBA2 mouse lungs at 10 mg/kg, ip after 72 hrs; format: ADME, organism-based; design: dose 10 mg/kg, route intraperitoneal; conditions: lung, read-out: Drug uptake
# [5] = Biodistribution in mouse Cloudman S91 tumor bearing DBA2 mouse intestine at 10 mg/kg, ip after 2 hrs; format: ADME, organism-based; design: dose 10 mg/kg, route intraperitoneal; conditions: read-out: Drug uptake
# [6] = Biodistribution in mouse Cloudman S91 tumor bearing DBA2 mouse liver at 10 mg/kg, ip after 48 hrs; format: ADME, organism-based; design: dose 10 mg/kg, route intraperitoneal; conditions: read-out: Drug uptake
# [7] = Biodistribution in mouse Cloudman S91 tumor bearing DBA2 mouse heart at 10 mg/kg, ip after 2 hrs; format: ADME, organism-based; design: dose 10 mg/kg, route intraperitoneal; conditions: read-out: Drug uptake
# [8] = Biodistribution in mouse Cloudman S91 tumor bearing DBA2 mouse kidneys at 10 mg/kg, ip after 2 hrs; format: ADME, organism-based; design: dose 10 mg/kg, route intraperitoneal; conditions: kidney, read-out: Drug uptake
# [9] = Biodistribution in mouse Cloudman S91 tumor bearing DBA2 mouse skin at 10 mg/kg, ip after 24 hrs; format: ADME, organism-based, Zone of skin; design: dose 10 mg/kg, route intraperitoneal; conditions: read-out: Drug uptake
# [10] = Biodistribution in mouse Cloudman S91 tumor bearing DBA2 mouse lungs at 10 mg/kg, ip after 48 hrs; format: ADME, organism-based; design: dose 10 mg/kg, route intraperitoneal; conditions: lung, read-out: Drug uptake
# [11] = Biodistribution in mouse Cloudman S91 tumor bearing DBA2 mouse tumour at 10 mg/kg, ip after 72 hrs; format: ADME, organism-based, Neoplasm; design: dose 10 mg/kg, route intraperitoneal; conditions: read-out: Drug uptake
# [12] = Biodistribution in mouse Cloudman S91 tumor bearing DBA2 mouse liver at 10 mg/kg, ip after 2 hrs; format: ADME, organism-based; design: dose 10 mg/kg, route intraperitoneal; conditions: read-out: Drug uptake
# [13] = Biodistribution in mouse Cloudman S91 tumor bearing DBA2 mouse blood at 10 mg/kg, ip after 48 hrs; format: ADME, organism-based; design: dose 10 mg/kg, route intraperitoneal; conditions: read-out: Drug uptake
# [14] = Biodistribution in mouse Cloudman S91 tumor bearing DBA2 mouse kidneys at 10 mg/kg, ip after 6 hrs; format: ADME, organism-based; design: dose 10 mg/kg, route intraperitoneal; conditions: kidney, read-out: Drug uptake
# [15] = Biodistribution in mouse Cloudman S91 tumor bearing DBA2 mouse blood at 10 mg/kg, ip after 24 hrs; format: ADME, organism-based; design: dose 10 mg/kg, route intraperitoneal; conditions: read-out: Drug uptake
# Nucleic Acid [16] = assay: Ratio of drug level in tumor to skin in ip dosed human HT29 tumor bearing mouse; format: ADME, organism-based; conditions: in vivo
# [17] = Biodistribution in mouse Cloudman S91 tumor bearing DBA2 mouse muscle at 10 mg/kg, ip after 24 hrs; format: ADME, organism-based, Muscle tissue; design: dose 10 mg/kg, route intraperitoneal; conditions: read-out: Drug uptake
# [18] = Biodistribution in mouse Cloudman S91 tumor bearing DBA2 mouse heart at 10 mg/kg, ip after 6 hrs; format: ADME, organism-based; design: dose 10 mg/kg, route intraperitoneal; conditions: read-out: Drug uptake
# [19] = Biodistribution in mouse Cloudman S91 tumor bearing DBA2 mouse spleen at 10 mg/kg, ip after 24 hrs; format: ADME, organism-based; design: dose 10 mg/kg, route intraperitoneal; conditions: read-out: Drug uptake
# [20] = Biodistribution in mouse Cloudman S91 tumor bearing DBA2 mouse kidneys at 10 mg/kg, ip after 48 hrs; format: ADME, organism-based; design: dose 10 mg/kg, route intraperitoneal; conditions: kidney, read-out: Drug uptake
# [21] = Biodistribution in mouse Cloudman S91 tumor bearing DBA2 mouse muscle at 10 mg/kg, ip after 12 hrs; format: ADME, organism-based, Muscle tissue; design: dose 10 mg/kg, route intraperitoneal; conditions: read-out: Drug uptake
# [22] = Biodistribution in mouse Cloudman S91 tumor bearing DBA2 mouse kidneys at 10 mg/kg, ip after 12 hrs; format: ADME, organism-based; design: dose 10 mg/kg, route intraperitoneal; conditions: kidney, read-out: Drug uptake
# [23] = Biodistribution in mouse Cloudman S91 tumor bearing DBA2 mouse spleen at 10 mg/kg, ip after 12 hrs; format: ADME, organism-based; design: dose 10 mg/kg, route intraperitoneal; conditions: read-out: Drug uptake
# [24] = Biodistribution in mouse Cloudman S91 tumor bearing DBA2 mouse blood at 10 mg/kg, ip after 2 hrs; format: ADME, organism-based; design: dose 10 mg/kg, route intraperitoneal; conditions: read-out: Drug uptake
# [25] = Biodistribution in mouse Cloudman S91 tumor bearing DBA2 mouse skin at 10 mg/kg, ip after 48 hrs; format: ADME, organism-based, Zone of skin; design: dose 10 mg/kg, route intraperitoneal; conditions: read-out: Drug uptake
# [26] = Biodistribution in mouse Cloudman S91 tumor bearing DBA2 mouse blood at 10 mg/kg, ip after 6 hrs; format: ADME, organism-based; design: dose 10 mg/kg, route intraperitoneal; conditions: read-out: Drug uptake
# [27] = Biodistribution in mouse Cloudman S91 tumor bearing DBA2 mouse intestine at 10 mg/kg, ip after 72 hrs; format: ADME, organism-based; design: dose 10 mg/kg, route intraperitoneal; conditions: read-out: Drug uptake
# [28] = Biodistribution in mouse Cloudman S91 tumor bearing DBA2 mouse lungs at 10 mg/kg, ip after 6 hrs; format: ADME, organism-based; design: dose 10 mg/kg, route intraperitoneal; conditions: lung, read-out: Drug uptake
# [29] = Biodistribution in mouse Cloudman S91 tumor bearing DBA2 mouse muscle at 10 mg/kg, ip after 2 hrs; format: ADME, organism-based, Muscle tissue; design: dose 10 mg/kg, route intraperitoneal; conditions: read-out: Drug uptake
# [30] = Biodistribution in mouse Cloudman S91 tumor bearing DBA2 mouse tumour at 10 mg/kg, ip after 48 hrs; format: ADME, organism-based, Neoplasm; design: dose 10 mg/kg, route intraperitoneal; conditions: read-out: Drug uptake
# Nucleic Acid [31] = assay: Ratio of drug level in tumor to skin in mouse Cloudman S91 tumor bearing DBA2 mouse at 10 mg/kg, ip; format: ADME, organism-based; design: dose 10 mg/kg, route intraperitoneal; conditions: in vivo
# [32] = Biodistribution in mouse Cloudman S91 tumor bearing DBA2 mouse muscle at 10 mg/kg, ip after 48 hrs; format: ADME, organism-based, Muscle tissue; design: dose 10 mg/kg, route intraperitoneal; conditions: read-out: Drug uptake
# [33] = Biodistribution in mouse Cloudman S91 tumor bearing DBA2 mouse skin at 10 mg/kg, ip after 2 hrs; format: ADME, organism-based, Zone of skin; design: dose 10 mg/kg, route intraperitoneal; conditions: read-out: Drug uptake
# Nucleic Acid [34] = assay: Ratio of drug level in tumor to muscle in ip dosed human HT29 tumor bearing mouse; format: ADME, organism-based; conditions: in vivo
# [35] = Biodistribution in mouse Cloudman S91 tumor bearing DBA2 mouse spleen at 10 mg/kg, ip after 2 hrs; format: ADME, organism-based; design: dose 10 mg/kg, route intraperitoneal; conditions: read-out: Drug uptake
# [36] = Biodistribution in mouse Cloudman S91 tumor bearing DBA2 mouse intestine at 10 mg/kg, ip after 6 hrs; format: ADME, organism-based; design: dose 10 mg/kg, route intraperitoneal; conditions: read-out: Drug uptake
# [37] = Biodistribution in mouse Cloudman S91 tumor bearing DBA2 mouse liver at 10 mg/kg, ip after 12 hrs; format: ADME, organism-based; design: dose 10 mg/kg, route intraperitoneal; conditions: read-out: Drug uptake
smiles,measurement,setting,value
CCNS(=O)(=O)c1ccc(Cl)c(-c2c3nc(c(-c4c(Cl)ccc(S(=O)(=O)NCC)c4Cl)c4ccc([nH]4)c(-c4c(Cl)ccc(S(=O)(=O)NCC)c4Cl)c4nc(c(-c5c(Cl)ccc(S(=O)(=O)NCC)c5Cl)c5ccc2[nH]5)CC4)CC3)c1Cl,concentration at 6 h,[1],70 ng/g
same,concentration at 24 h,[2],850 ng/g
same,concentration at 72 h,[3],3000 ng/g
same,concentration at 72 h,[4],300 ng/g
same,concentration at 2 h,[5],200 ng/g
same,concentration at 48 h,[6],2400 ng/g
same,concentration at 2 h,[7],40 ng/g
same,concentration at 2 h,[8],100 ng/g
same,concentration at 24 h,[9],170 ng/g
same,concentration at 48 h,[10],500 ng/g
same,concentration at 72 h,[11],150 ng/g
same,concentration at 2 h,[12],980 ng/g
same,concentration at 48 h,[13],130 ng/g
same,concentration at 6 h,[14],400 ng/g
same,concentration at 24 h,[15],230 ng/g
same,Ratio,Nucleic Acid [16],1
same,concentration at 24 h,[17],130 ng/g
same,concentration at 6 h,[18],100 ng/g
same,concentration at 24 h,[19],10000 ng/g
same,concentration at 48 h,[20],400 ng/g
same,concentration at 12 h,[21],120 ng/g
same,concentration at 12 h,[22],300 ng/g
same,concentration at 12 h,[23],6100 ng/g
same,concentration at 2 h,[24],90 ng/g
same,concentration at 48 h,[25],80 ng/g
same,concentration at 6 h,[26],240 ng/g
same,concentration at 72 h,[27],300 ng/g
same,concentration at 6 h,[28],300 ng/g
same,concentration at 2 h,[29],30 ng/g
same,concentration at 48 h,[30],320 ng/g
same,Ratio,Nucleic Acid [31],6
same,concentration at 48 h,[32],70 ng/g
same,concentration at 2 h,[33],50 ng/g
same,Ratio,Nucleic Acid [34],5
same,concentration at 2 h,[35],2300 ng/g
same,concentration at 6 h,[36],1800 ng/g
same,concentration at 12 h,[37],4000 ng/g
